# Measured values reported in US4537967A, “1-Oxo-1,2,3,4-tetrahydro-3-isoquinoline carboxylic acid derivatives” (Wakamoto Pharmaceutical Co., Ltd., priority 1982, dated 1985).
# What was measured:
# [1] = target: T1, angiotensin converting enzyme (ACE) (Oryctolagus cuniculus, UniProt P12822); assay: ACE inhibition in vitro with hippuryl-L-histidine-L-leucine as substrate (method of Biochemical Pharmacology, 20, 1637 (1971)); set-up: species or system rabbit (lung); conditions: read-out: 50% inhibition concentration (ID50)
# T1 construct: ACE extracted from rabbit lung and purified; from tissue; host or cells: rabbit lung
# T1 sequence (P12822 34-1310): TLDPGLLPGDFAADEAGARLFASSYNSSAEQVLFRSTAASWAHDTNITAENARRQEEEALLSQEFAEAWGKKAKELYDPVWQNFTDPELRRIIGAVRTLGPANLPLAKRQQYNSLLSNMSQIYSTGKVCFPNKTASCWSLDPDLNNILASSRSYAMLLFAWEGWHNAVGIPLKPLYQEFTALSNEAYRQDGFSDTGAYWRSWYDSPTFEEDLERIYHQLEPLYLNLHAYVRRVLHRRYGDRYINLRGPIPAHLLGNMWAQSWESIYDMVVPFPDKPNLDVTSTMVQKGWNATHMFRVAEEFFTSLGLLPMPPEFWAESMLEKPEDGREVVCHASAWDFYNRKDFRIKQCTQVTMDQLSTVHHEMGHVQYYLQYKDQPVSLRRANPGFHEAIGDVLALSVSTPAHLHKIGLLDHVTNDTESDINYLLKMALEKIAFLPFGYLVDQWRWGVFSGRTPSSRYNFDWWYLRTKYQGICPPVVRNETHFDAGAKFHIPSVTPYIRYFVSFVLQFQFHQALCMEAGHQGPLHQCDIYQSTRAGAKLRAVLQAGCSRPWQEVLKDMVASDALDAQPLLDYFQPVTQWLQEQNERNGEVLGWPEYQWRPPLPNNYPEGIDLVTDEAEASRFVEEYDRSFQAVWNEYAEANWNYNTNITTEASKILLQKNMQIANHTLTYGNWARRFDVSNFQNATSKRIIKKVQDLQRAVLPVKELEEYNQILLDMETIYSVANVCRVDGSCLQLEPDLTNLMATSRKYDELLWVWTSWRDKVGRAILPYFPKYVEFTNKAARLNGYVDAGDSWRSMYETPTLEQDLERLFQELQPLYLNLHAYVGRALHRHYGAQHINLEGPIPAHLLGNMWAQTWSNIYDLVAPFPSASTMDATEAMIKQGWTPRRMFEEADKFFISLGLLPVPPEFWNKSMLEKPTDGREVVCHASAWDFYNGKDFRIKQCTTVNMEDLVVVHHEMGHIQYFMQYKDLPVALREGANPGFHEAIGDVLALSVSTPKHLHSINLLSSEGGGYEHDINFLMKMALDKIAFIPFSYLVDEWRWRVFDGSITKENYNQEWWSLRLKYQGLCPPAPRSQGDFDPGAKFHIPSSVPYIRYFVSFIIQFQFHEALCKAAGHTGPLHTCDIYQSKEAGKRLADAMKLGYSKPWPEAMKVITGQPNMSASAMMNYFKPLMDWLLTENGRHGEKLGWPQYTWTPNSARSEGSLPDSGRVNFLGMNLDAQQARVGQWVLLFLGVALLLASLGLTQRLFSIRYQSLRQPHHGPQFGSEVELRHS
# Protocol: (§1) The compounds [I] according to the present invention may be expected to be useful as a […], since they have an excellent ACE inhibitory effect. This has been well evidenced by an experiment using ACE extracted from rabbit lung and purified. The ACE inhibitory effect of the compounds of the present invention was determined according to the following illustrative test and the results will be shown in the following Table 1.
# The compounds of the present invention act to inhibite angiotensin converting enzyme which converts angiotensin I, produced by the action of the enzyme renin from angiotensinogen, to angiotensin II which acts as a pressor agent. Therefore, these compounds may be expected to be effective in the treatment of hypertension.
# [2] = tested on: angiotensin converting enzyme (ACE); assay: Inhibition of the angiotensin-induced rise in blood pressure in rats after oral administration (illustrative test, ACE inhibitory effect); format: in vivo, male rats (Spraque-Dawleg); conditions: angiotensin I 300 ng/kg and angiotensin II 100 ng/kg i.v., maximum blood pressure rise vs control
# Protocol: as §1
# In this test, male rats (Spraque-Dawleg) of 250 to 350 g in weight were used, which were raised under conditions of free access to food and water.
# The day before the test, each rat was narcotized by sodium pentobarbital (50 mg/kg) injected intraperitoneally. A polyethylene tube was inserted into a vein at the groin and fixed in order to introduce angiotensin and, further, another polyethylene tube was inserted into an artery at the groin and fixed to measure the blood pressure thereof. The blood pressure was determined by the use of an electronic sphygmomanometer (Nihon Kohden Kogyo Co., Ltd. type MP-4T).
# Each rat was injected with 300 ng/kg of angiotensin I and 100 ng/kg of angiotensin II through the vein at the groin and the blood pressure recorded periodically and the maximum value of the rise in the blood pressure resulting from the injection of angiotensin was determined for use as a control.
# Then, the percentage of inhibitory effect was determined by orally administering 13.8 μM/kg of a compound of the invention to each rat, and injecting 300 ng/kg of angiotensin I and 100 ng/kg of angiotensin II into the vein at the groin at periods of 20, 60 or 120 minutes after the administration of the compound, with maximum blood pressures being determined by periodically measuring the blood pressure and comparing each maximum value obtained with that of the controls.
IC50 [1] [nM],Structure (SMILES),Inhibition (%) ([2]; 20 min after oral 13.8 μM/kg),Inhibition (%) ([2]; 60 min after oral 13.8 μM/kg),Inhibition (%) ([2]; 120 min after oral 13.8 μM/kg)
51,"O=C(O)C1Cc2ccccc2C(=O)N1C(=O)CCS (centres unmarked) [Example 1, 2-(3-mercaptopropionyl)-1-oxo-1,2,3,4-tetrahydro-3-isoquinoline carboxylic acid]",81,78,59
73,"CC(CS)C(=O)N1C(=O)c2ccccc2CC1C(=O)O (centres unmarked) [Example 2, 2-(3-mercapto-2-methylpropionyl)-1-oxo-1,2,3,4-tetrahydro-3-isoquinoline carboxylic acid]",83,70,72
